Experimental data from the NIST ThermoML archive (doi:10.1021/je049973v).

Details: Liquid; for speed of sound: Pulse-echo method; for mass density: Vibrating tube method

CCCCCCCCCCCCCCCCCCc1ccccc1 [octadecylbenzene]
Details | mass density, 353.15 K [kg/m3] | mass density, 363.15 K [kg/m3] | mass density, 373.15 K [kg/m3] | speed of sound, 343.15 K [m/s] | speed of sound, 353.15 K [m/s] | speed of sound, 363.15 K [m/s] | speed of sound, 373.15 K [m/s]
100 kPa | 814.1 | 807.7 | 800.89 | – | 1260.7 | 1229.5 | 1198.7
5000 kPa | 817.72 | 811.19 | 804.86 | – | – | – | –
10000 kPa | 821.14 | 814.87 | 808.59 | – | 1313.4 | 1284.8 | 1255.2
15000 kPa | 824.47 | 818.14 | 812.16 | – | – | – | –
20000 kPa | – | – | – | – | 1364.1 | 1334.9 | 1308.3
25000 kPa | 830.64 | 824.7 | 818.84 | – | – | – | –
30000 kPa | 833.58 | 827.83 | 821.97 | – | 1410 | 1382.7 | 1356.6
35000 kPa | 836.52 | 830.62 | 825.09 | – | – | – | –
40000 kPa | 839.12 | 833.38 | 828 | – | 1454 | 1427.1 | 1401.7
45000 kPa | 841.72 | 836.17 | 830.8 | – | – | – | –
50000 kPa | 844.35 | 838.78 | 833.6 | – | 1494.4 | 1469.1 | 1444.5
55000 kPa | 846.91 | 841.42 | 836.29 | – | – | – | –
60000 kPa | 849.39 | 843.92 | 838.88 | – | 1532.6 | 1508.3 | 1484.7
70000 kPa | – | – | – | 1594.2 | 1569.2 | 1545.7 | 1522
80000 kPa | – | – | – | 1628.6 | 1604.3 | 1581.7 | 1558.6
90000 kPa | – | – | – | 1661.5 | 1638.2 | 1615.7 | 1592.9
100000 kPa | – | – | – | 1693.1 | 1670.3 | 1648.3 | 1626.3
110000 kPa | – | – | – | 1723.6 | 1701.4 | 1679.8 | 1657.9
120000 kPa | – | – | – | 1753.5 | 1731.3 | 1710 | 1688.5
130000 kPa | – | – | – | 1781.9 | 1759.9 | 1739.2 | 1718.7
140000 kPa | – | – | – | 1809.4 | 1788.8 | 1767.5 | 1746.6
150000 kPa | – | – | – | 1836.3 | 1815.1 | 1795.5 | 1774.6
